According to PMC11945486, “TAS1R2/TAS1R3 Single-Nucleotide Polymorphisms Affect Sweet Taste Receptor Activation by Sweeteners: The SWEET Project” (Nutrients, 2025):
Like-named read-outs stand apart in the source and are kept apart here. No end group written: not given here.

Target: T1, human TAS1R2-WT/TAS1R3-A5T (Homo sapiens, UniProt Q7RTX0+Q8TE23, A5T)
T1 construct: expressed in transfected cells; host or cells: HEK293T stably expressing Gα16gust44
T1 sequence (Q8TE23 20-839): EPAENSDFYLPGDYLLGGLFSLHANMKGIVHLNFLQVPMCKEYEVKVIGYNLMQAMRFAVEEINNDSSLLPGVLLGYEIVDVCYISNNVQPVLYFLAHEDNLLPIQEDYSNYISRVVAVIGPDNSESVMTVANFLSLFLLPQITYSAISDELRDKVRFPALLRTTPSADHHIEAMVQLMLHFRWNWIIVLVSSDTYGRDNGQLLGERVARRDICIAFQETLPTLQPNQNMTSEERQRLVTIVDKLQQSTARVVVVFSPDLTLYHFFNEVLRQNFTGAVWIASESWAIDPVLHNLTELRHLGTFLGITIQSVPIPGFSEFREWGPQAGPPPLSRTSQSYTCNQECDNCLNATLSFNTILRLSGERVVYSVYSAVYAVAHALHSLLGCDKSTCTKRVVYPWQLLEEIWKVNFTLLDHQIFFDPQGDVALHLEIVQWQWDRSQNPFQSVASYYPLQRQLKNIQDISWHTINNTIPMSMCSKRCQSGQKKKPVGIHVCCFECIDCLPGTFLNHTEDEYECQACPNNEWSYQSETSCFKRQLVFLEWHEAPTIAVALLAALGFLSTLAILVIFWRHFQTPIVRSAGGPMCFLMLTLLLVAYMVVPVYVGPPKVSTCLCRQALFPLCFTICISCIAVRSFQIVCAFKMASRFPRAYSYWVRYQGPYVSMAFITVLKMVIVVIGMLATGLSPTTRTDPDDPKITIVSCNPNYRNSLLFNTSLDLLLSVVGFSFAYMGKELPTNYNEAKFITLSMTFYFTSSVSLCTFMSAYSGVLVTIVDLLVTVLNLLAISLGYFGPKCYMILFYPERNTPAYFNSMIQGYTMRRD
T1 sequence (Q7RTX0 21-852): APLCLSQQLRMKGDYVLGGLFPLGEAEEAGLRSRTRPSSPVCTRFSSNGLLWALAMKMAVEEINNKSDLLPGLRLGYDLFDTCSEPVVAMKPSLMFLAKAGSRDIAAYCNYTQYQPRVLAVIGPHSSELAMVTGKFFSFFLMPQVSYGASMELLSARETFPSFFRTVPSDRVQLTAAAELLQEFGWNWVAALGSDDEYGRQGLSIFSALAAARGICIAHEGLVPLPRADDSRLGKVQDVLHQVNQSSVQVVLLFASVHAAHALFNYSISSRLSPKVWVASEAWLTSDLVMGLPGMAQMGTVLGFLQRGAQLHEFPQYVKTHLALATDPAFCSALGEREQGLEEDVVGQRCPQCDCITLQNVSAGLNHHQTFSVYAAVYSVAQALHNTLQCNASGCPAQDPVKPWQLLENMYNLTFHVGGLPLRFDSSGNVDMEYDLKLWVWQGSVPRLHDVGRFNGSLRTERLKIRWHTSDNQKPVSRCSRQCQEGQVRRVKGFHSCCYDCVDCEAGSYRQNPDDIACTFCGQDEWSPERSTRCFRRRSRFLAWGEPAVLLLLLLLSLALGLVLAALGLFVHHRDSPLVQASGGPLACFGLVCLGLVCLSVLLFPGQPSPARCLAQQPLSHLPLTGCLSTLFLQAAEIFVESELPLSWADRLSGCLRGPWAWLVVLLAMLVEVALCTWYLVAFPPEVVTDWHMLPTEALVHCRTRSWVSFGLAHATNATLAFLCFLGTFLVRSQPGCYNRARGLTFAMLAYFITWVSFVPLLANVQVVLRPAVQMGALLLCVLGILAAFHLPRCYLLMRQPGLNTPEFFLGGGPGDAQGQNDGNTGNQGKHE
Test: Calcium mobilisation assay, TAS1R2-WT with TAS1R3 variant A5T
Format: cell-based
Settings: for Max ΔF/F0: maximal signal amplitude
Description: The coding sequences for TAS1R2 and TAS1R3 were commercially synthesised, and the human codon was optimised for expression in human cells. The coding sequences of human TAS1R2 and TAS1R3 were subcloned and inserted into the mammalian expression vectors pcDNA6/myc-HisA and pcDNA4/myc-HisA (Invitrogen; Thermo Fisher Scientific; Illkirch, France) between the EcoRI and NotI restriction sites, generating the plasmids pcDNA6-TAS1R2 and pcDNA4-TAS1R3, respectively. To increase protein expression in mammalian cells, an upstream start codon was used, which was a sequence called MAX, corresponding to the QBI SP163 element also described in pcDNA4-HisMax (Invitrogen; Thermo Fisher Scientific; Illkirch, France). To measure the expression level of the receptor by immunohistochemistry, we used the FLAG sequence ([…]) in the C-terminal position, which encodes the FLAG tag epitope. SNP variants of TAS1R2 and TAS1R3 were constructed based on […], respectively, using site-directed mutagenesis (Genewiz; Leipzig, Germany).
The HEK293T cells were kindly provided by Jay P. Slack (Givaudan Flavors Corporation; Cincinnati, OH, USA). HEK293T cells stably transfected with Gα16gust44 [43, 67] were seeded in poly-D-lysine-coated clear-bottom black 96-well plates (0.35 × 10^5 cells/well) in high-glucose DMEM supplemented with 2 mM GlutaMAX, 10% dialysed foetal bovine serum with penicillin/streptomycin and G418 (400 μg/mL) at 37 °C and 6.3% CO2 in a humidified atmosphere as previously reported. […] As a negative control, HEK293T cells were mock-transfected with the empty expression vector. After a further 24 h of incubation, the HEK293T cells were washed with C1 buffer (130 mM NaCl, 5 mM KCl, 10 mM HEPES pH 7.4 and 2 mM CaCl2). The 96-well plates containing the cells were then stimulated with sweet-tasting compounds. […] Different concentration ranges were tested depending on the sweet compound injected. The Ca^2+ changes were expressed as fractional changes in fluorescent light intensity: ΔF/F = (F − F0)/F0, where F was the fluorescent light intensity at each point, and F0 was the value of emitted fluorescent light prior to stimulus application. To calculate dose–response relationships, the changes in fluorescence upon stimulus application were averaged, mock-subtracted and baseline-corrected. The dose–response data obtained were adjusted using a 4-parameter logistic equation. The half-maximal effective concentrations (EC50 values) and maximal signal amplitudes were calculated using SigmaPlot software (version 15.0) (Systat Software; San Jose, CA, USA).
For in vitro calcium mobilisation assay performed on hTAS1R2-SNPs, hTAS1R3-SNPs and mTAS1R3-I60T, 6 to 7 concentrations were tested for each sweet compound, plus buffer alone. All concentration–receptor combinations were measured in duplicate, and each experiment was repeated at least 4 times (8 wells/concentration). Results were expressed for each concentration as ΔF/F mean ± SEM and represented as dose–response curves.

Compound | R1 = Variant EC50/WT EC50 | Max ΔF/F0 | EC50 (read-out: EC50) [µM] | EC50 (brazzein) [µg/mL]
CC1=CC(=O)NS(=O)(=O)O1 [Acesulfame K, acesulfame K] | 1.4 | 0.31 ± 0.01 | 852 ± 34 | 
O=S(=O)(O)NC1CCCCC1 [Cyclamate, cyclamate] |  |  | 1790 ± 35 | 
C[C@H](CC[C@@H](O[C@@H]1O[C@H](CO[C@@H]2O[C@H](CO)[C@@H](O)[C@H](O)[C@H]2O)[C@@H](O)[C@H](O)[C@H]1O[C@@H]1O[C@H](CO)[C@@H](O)[C@H](O)[C@H]1O)C(C)(C)O)[C@H]1CC[C@@]2(C)[C@@H]3CC=C4[C@@H](CC[C@H](O[C@@H]5O[C@H](CO[C@@H]6O[C@H](CO)[C@@H](O)[C@H](O)[C@H]6O)[C@@H](O)[C@H](O)[C@H]5O)C4(C)C)[C@]3(C)[C@H](O)C[C@]12C [Mogroside V, mogroside V] | 1.0 | 0.97 ± 0.01 | 31.3 ± 1 | 
brazzein (QDKCKKVYENYPVSKCQLANQCNYDCKLDKHARSGECFYDEKRNLQCICDYCEY; ends and bridges not checked; cysteine pairing not given here; UniProt P56552 1-54, looked up) [sweet-tasting protein obtained by recombinant production using the yeast Pichia pastoris] | 1.0 | 1.04 ± 0.04 |  | 108.3 ± 11.5

The next lines start with the values.

R1 = Variant EC50/WT EC50 | Max ΔF/F0 | EC50 (read-out: EC50) [µM] | EC50 (brazzein) [µg/mL] | Compound
1.5 | 1.24 ± 0.01 | 76.5 ± 13.1 |  | COc1ccc(CCC(=O)c2c(O)cc(O[C@@H]3O[C@H](CO)[C@@H](O)[C@H](O)[C@H]3O[C@@H]3O[C@@H](C)[C@H](O)[C@@H](O)[C@H]3O)cc2O)cc1O [NHDC, neohesperidin dihydrochalcone]
1.0 | 0.65 ± 0.01 | 1.18 ± 0.05 |  | COC(=O)[C@H](Cc1ccccc1)NC(=O)[C@H](CC(=O)O)NCCC(C)(C)C [Neotame]
1.0 | 1.42 ± 0.23 | 13.2 ± 6.4 |  | C=C(C)[C@@H]1CC=C(/C=N/O)CC1 [Perillartine, perillartine]
0.7 | 1.06 ± 0.02 | 30.2 ± 1.5 |  | C=C1C[C@@]23CC[C@H]4[C@@](C)(CCC[C@@]4(C)C(=O)O[C@@H]4O[C@H](CO)[C@@H](O)[C@H](O[C@@H]5O[C@H](CO)[C@@H](O)[C@H](O)[C@H]5O)[C@H]4O[C@@H]4O[C@H](CO)[C@@H](O)[C@H](O)[C@H]4O)[C@@H]2CC[C@]1(O[C@@H]1O[C@H](CO)[C@@H](O)[C@H](O[C@@H]2O[C@H](CO)[C@@H](O)[C@H](O)[C@H]2O)[C@H]1O[C@@H]1O[C@H](CO)[C@@H](O)[C@H](O)[C@H]1O)C3 [Rebaudioside M, rebaudioside M]
1.2 | 0.63 ± 0.01 | 135 ± 5 |  | OC[C@H]1O[C@H](O[C@]2(CCl)O[C@H](CCl)[C@@H](O)[C@@H]2O)[C@H](O)[C@@H](O)[C@H]1Cl [Sucralose]
0.9 | 0.73 ± 0.04 | 9.7 ± 0.8 |  | thaumatin
